Tests used:
COX-2 = molecular target: T1, COX-2 (Homo sapiens, UniProt P35354); experiment: COX-2 enzyme activity in human whole blood (LPS induced, thromboxane B2 EIA); format: cell-based; parameters: Human blood (≈50 mL) from male or female donors who had not received any aspirin or NSAIDs for 14 days; endogenous in cells; host or cells: human whole blood from donors, LPS-induced; conditions: test compound at 10 μM
T1 sequence (P35354 18-604): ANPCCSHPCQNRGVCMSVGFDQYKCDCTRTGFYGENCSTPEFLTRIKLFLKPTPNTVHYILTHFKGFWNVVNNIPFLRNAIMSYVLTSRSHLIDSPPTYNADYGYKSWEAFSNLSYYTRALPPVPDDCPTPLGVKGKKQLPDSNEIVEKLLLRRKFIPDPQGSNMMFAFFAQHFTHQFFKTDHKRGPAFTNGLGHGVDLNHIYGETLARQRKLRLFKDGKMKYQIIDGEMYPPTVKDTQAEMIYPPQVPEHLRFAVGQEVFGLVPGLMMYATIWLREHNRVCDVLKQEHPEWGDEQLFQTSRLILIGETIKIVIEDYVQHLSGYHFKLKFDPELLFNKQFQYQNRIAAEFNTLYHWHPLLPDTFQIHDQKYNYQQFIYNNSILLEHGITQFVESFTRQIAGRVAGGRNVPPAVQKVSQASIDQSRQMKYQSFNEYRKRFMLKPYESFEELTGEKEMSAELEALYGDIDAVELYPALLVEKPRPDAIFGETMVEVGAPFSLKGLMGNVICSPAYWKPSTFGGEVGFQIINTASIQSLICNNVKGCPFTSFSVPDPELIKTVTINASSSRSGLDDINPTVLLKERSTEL

COX-1 = COX-1 (Homo sapiens, UniProt P23219); experiment: COX-1 enzyme activity in human whole blood (A23187 stimulated, thromboxane B2 EIA); format: cell-based; parameters: Human blood (≈50 mL) from male or female donors who had not received any aspirin or NSAIDs for 14 days; endogenous in cells; host or cells: human whole blood from donors; conditions: test compound at 100 μM
Sequence of COX-1 (P23219 24-599): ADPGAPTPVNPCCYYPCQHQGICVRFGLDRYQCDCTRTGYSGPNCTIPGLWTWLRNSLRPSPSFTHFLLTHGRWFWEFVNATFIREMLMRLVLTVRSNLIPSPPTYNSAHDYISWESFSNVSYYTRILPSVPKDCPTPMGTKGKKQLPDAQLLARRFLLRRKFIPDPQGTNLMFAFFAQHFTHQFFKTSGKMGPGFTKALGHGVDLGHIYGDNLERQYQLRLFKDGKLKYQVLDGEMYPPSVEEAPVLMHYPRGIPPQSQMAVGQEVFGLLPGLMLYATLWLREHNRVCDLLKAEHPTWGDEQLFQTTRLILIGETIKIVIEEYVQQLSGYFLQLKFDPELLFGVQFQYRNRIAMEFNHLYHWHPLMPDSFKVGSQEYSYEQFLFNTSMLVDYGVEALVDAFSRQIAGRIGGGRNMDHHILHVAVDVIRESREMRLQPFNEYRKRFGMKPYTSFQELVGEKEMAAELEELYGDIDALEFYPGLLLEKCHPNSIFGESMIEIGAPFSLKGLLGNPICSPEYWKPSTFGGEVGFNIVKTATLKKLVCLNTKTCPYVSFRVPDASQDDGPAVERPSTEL

SMILES	COX-2 Inhibition (% at 10 μM) (COX-2) [%]	COX-1 Inhibition (% at 100 μM) (COX-1) [%]
CS(=O)(=O)c1ccc(-c2cc3c(cc2CC2CCCCC2)OCO3)cc1 [Example 1e, 1-(6-(Cyclohexylmethyl)(2-H-benzo(3,4-d)1,3-dioxolen-5-yl))-4-(methylsulfonyl) benzene]	90	40
CS(=O)(=O)c1ccc(-c2cc3c(cc2C(=O)c2ccccc2)OCO3)cc1 [Example 3d, 6-(4-(Methylsulfonyl)phenyl)(2H-benzo(d)1,3-dioxolan-5-yl) phenyl ketone]	60	75
CS(=O)(=O)c1ccc(-c2cc3c(cc2Cc2cccnc2)OCO3)cc1 [Example 6c, 4-(Methylsulfonyl)-1-(6-(3-pyridylmethyl)(2H-benzo(3,4-d)1,3-dioxolan-5-yl))benzene]	10	20
CS(=O)(=O)c1ccc(-c2cc3c(cc2CN2CCCCC2=O)OCO3)cc1 [Example 9c]	30	35
CS(=O)(=O)c1ccc(-c2cc3c(cc2C=C2CCCC2)OCO3)cc1 [Example 10a, 4-(6-(Cyclopentylidenemethyl)(2H-benzo(3,4-d)1,3-dioxolan-5-yl))-1-(methylsulfonyl)benzene]	90	70
CS(=O)(=O)c1ccc(-c2cc3c(cc2Cc2cc(F)cc(F)c2)OCO3)cc1 [Example 15c, 5-(1-(3′,5′-Difluorophenyl)methyl)-1,2-methylenedioxy-4-(4-methylsulfonylphenyl)benzene]	85	75

From patent US6825185B2, “Substituted aryl compounds as novel cyclooxygenase-2 selective inhibitors, compositions and methods of use” (NitroMed, Inc., priority 2000, dated 2004)
